The values below come from PMC6522510 (Nature Communications, 2019).

Some test systems named below: U937; MOLM-13; CMS; M07e; MV4-11; CMK; ML-2; CHRF288-11.
Design in all cases: species or system AML cell lines (8); Primary HTS, single concentration about 10 uM, Cell Titer Glo viability; log10 luminescence, per cent inhibition relative to cycloheximide control
Common to all, as to settings: 72 h, relative to cycloheximide control, log10 luminescence, inhibitor

Each structure is given as a SMILES string. Read-outs that look alike come from different tables or passages of the source.

On to `CCc1ccc(Oc2nccc(-c3c(-c4ccc(F)cc4)ncn3C3CCNCC3)n2)cc1` [SJ000573353-1, JB42215-197B1], for which the U937 %inh with U937 worked out at 8.087%. Besides, the MOLM-13 %inh with MOLM-13 was found to be 6.147%. In the experiment on CMS, the CMS %inh is reported as 2.88%. Also, in the experiment with M07e, the M07e %inh came to 7.09%. For the same compound, the MV4-11 %inh with MV4-11 amounted to 7.571%. The CMK %inh in the experiment with CMK is 9.775%. The ML-2 %inh with ML-2 is reported as 3.582%. Moreover, the CHRF288-11 %inh in the experiment on CHRF288-11 was 58.08%.

Consider `CCn1c(-c2nonc2N)nc2c(C#CC(C)(C)O)nc(O[C@@H](CN)c3ccccc3)cc21` [SJ000573327-1, MS208738-058A1], for which, in the experiment with U937, the U937 %inh amounted to 77.05%. In addition, the MOLM-13 %inh with MOLM-13 is 95.38%. Also, the CMS %inh with CMS turned out to be 81.02%. Moreover, the M07e %inh in the experiment on M07e was 123.2%. The MV4-11 %inh in the experiment on MV4-11 is recorded as 81.31%. Besides, the CMK %inh in the experiment with CMK was determined as 85.94%. Also, the ML-2 %inh with ML-2 was determined as 56.05%. For the same compound, the CHRF288-11 %inh with CHRF288-11 came to 92%.

`COC(=O)[C@H](CC(C)C)NC(=O)[C@@H](O)[C@H](N)Cc1ccccc1` [SJ000772416-1, BESTATIN METHYL ESTER]: in the experiment with U937, the U937 %inh came to 22.26%. For the same compound, the MOLM-13 %inh with MOLM-13 is given as -1.654%. Also, in the experiment on CMS, the CMS %inh was found to be 2.851%. For the same compound, in the experiment on M07e, the M07e %inh is reported as 3.275%. In addition, the MV4-11 %inh in the experiment with MV4-11 is on record as 8.922%. Moreover, the CMK %inh in the experiment on CMK is listed as 1.43%. In addition, the ML-2 %inh in the experiment with ML-2 is 3.75%. For the same compound, the CHRF288-11 %inh with CHRF288-11 is recorded as 5.118%.

In the case of `CC(C)[C@@H](O)CC[C@@H](C)[C@H]1CC[C@H]2[C@@H]3CC=C4C[C@@H](O)CC[C@]4(C)[C@H]3CC[C@]12C` [SJ000561051-1, 24(S)-HYDROXYCHOLESTEROL], the U937 %inh with U937 is reported as -0.5103%. For the same compound, the MOLM-13 %inh in the experiment with MOLM-13 is reported as -1.323%. For the same compound, in the experiment with CMS, the CMS %inh is given as -2.331%. Besides, the M07e %inh in the experiment with M07e is -2.462%. In addition, the MV4-11 %inh with MV4-11 is reported as -0.7822%. The CMK %inh in the experiment with CMK is on record as -0.3911%. In addition, the ML-2 %inh in the experiment on ML-2 was found to be 0.6767%. Besides, in the experiment on CHRF288-11, the CHRF288-11 %inh is -3.422%.

Regarding `CN1CCN(Cc2ccc(-c3cc4ncnc(Nc5ccc(OCc6cccc(F)c6)c(Cl)c5)c4s3)o2)CC1` [SJ000573089-1, U17540/68/2], in the experiment on U937, the U937 %inh is given as 9.435%. Moreover, the MOLM-13 %inh in the experiment with MOLM-13 is 4.975%. Besides, in the experiment on CMS, the CMS %inh stood at 6.304%. Moreover, the M07e %inh in the experiment on M07e is listed as -2.246%. The MV4-11 %inh with MV4-11 was found to be 5.617%. For the same compound, in the experiment with CMK, the CMK %inh was found to be 14.44%. Also, the ML-2 %inh in the experiment on ML-2 is given as -0.8811%. In the experiment with CHRF288-11, the CHRF288-11 %inh is given as 89.11%.

For `O=C1Nc2ccccc2/C1=C\c1c(Cl)[nH]c2ccccc12` [SJ000312180-2, CDK1 INHIBITOR], the U937 %inh in the experiment on U937 is listed as 78.83%. Moreover, in the experiment on MOLM-13, the MOLM-13 %inh was determined as 82.19%. For the same compound, the CMS %inh in the experiment with CMS worked out at 93.89%. Moreover, in the experiment with M07e, the M07e %inh was found to be 105.1%. For the same compound, the MV4-11 %inh with MV4-11 is on record as 76.6%. For the same compound, the CMK %inh with CMK was 109.3%. Further, the ML-2 %inh with ML-2 is 57.06%. The CHRF288-11 %inh with CHRF288-11 is 68.22%.

Take `CC(=O)Nc1nnc(S(N)(=O)=O)s1` [SJ000285803-7, ACETAZOLAMIDE]: the U937 %inh in the experiment on U937 is -0.874%. Also, the MOLM-13 %inh in the experiment on MOLM-13 came out at 3.554%. Besides, in the experiment with CMS, the CMS %inh came out at 0.5025%. Further, in the experiment on M07e, the M07e %inh is given as -1.461%. Moreover, the MV4-11 %inh in the experiment with MV4-11 was determined as 1.807%. In the experiment with CMK, the CMK %inh is recorded as 2.601%. For the same compound, in the experiment with ML-2, the ML-2 %inh was -2.151%. In the experiment with CHRF288-11, the CHRF288-11 %inh turned out to be 0.8463%.

With `C[C@]12CC[C@@H]3c4ccc(O)cc4C[C@@H](CCCCCCCCC[S+]([O-])CCCC(F)(F)C(F)(F)F)[C@H]3[C@@H]1CC[C@@H]2O` (single isomer, unassigned) [SJ000288293-3, FULVESTRANT | FULVESTRANT| FASLODEX | FASLODEX (ICI 182,780)], in the experiment with U937 (U937 %inh, 10 µM), the U937 %inh was -0.5617%. In addition, in the experiment with MOLM-13 (MOLM-13 %inh, 10 µM), the MOLM-13 %inh is recorded as -2.461%. The CMS %inh in the experiment with CMS (CMS %inh, 10 µM) is 2.454%. For the same compound, the M07e %inh in the experiment with M07e (M07e %inh, 10 µM) amounted to 3.741%. Further, the MV4-11 %inh with MV4-11 (MV4-11 %inh, 10 µM) is on record as 13.25%. For the same compound, in the experiment with CMK (CMK %inh, 10 µM), the CMK %inh is listed as -2.659%. Moreover, the ML-2 %inh in the experiment on ML-2 (ML-2 %inh, 10 µM) is 2.01%. In addition, in the experiment with CHRF288-11 (CHRF288-11 %inh, 10 µM), the CHRF288-11 %inh amounted to 4.612%.

On to `CNC(=O)c1cccc(C#Cc2cncnc2Nc2ccc(OCc3cccc(F)c3)c(Cl)c2)c1` [SJ000573135-1, U17545/42/1], for which, in the experiment with U937, the U937 %inh is given as 0.8403%. In addition, the MOLM-13 %inh in the experiment on MOLM-13 was determined as 2.058%. The CMS %inh in the experiment on CMS stood at 2.176%. Moreover, the M07e %inh in the experiment on M07e stood at 2.556%. For the same compound, in the experiment with MV4-11, the MV4-11 %inh amounted to 0.5885%. Moreover, the CMK %inh with CMK is recorded as 2.154%. For the same compound, the ML-2 %inh with ML-2 turned out to be 1.577%. In the experiment on CHRF288-11, the CHRF288-11 %inh was -0.4909%.

In the case of `COc1cc2ncn(-c3cc(OCc4ccccc4C(F)(F)F)c(C(=O)N(C)C)s3)c2cc1OC` [SJ000573307-1, U22436/129/1], in the experiment on U937, the U937 %inh is listed as 7.074%. Moreover, the MOLM-13 %inh in the experiment on MOLM-13 was found to be 15.46%. Also, in the experiment on CMS, the CMS %inh is given as -4.162%. In addition, the M07e %inh in the experiment with M07e is on record as -4.272%. The MV4-11 %inh in the experiment on MV4-11 stood at 8.508%. Moreover, in the experiment with CMK, the CMK %inh is recorded as 4.289%. In addition, in the experiment on ML-2, the ML-2 %inh is on record as -1.707%. Besides, the CHRF288-11 %inh with CHRF288-11 is reported as 2.061%.

As for `Nc1[nH]nc2nnc(-c3c(-c4ccccc4)nn4ccccc34)cc12` [SJ000773182-1, FR 180204], in the experiment on U937, the U937 %inh stood at 0.5636%. Moreover, the MOLM-13 %inh with MOLM-13 was 10.92%. Also, the CMS %inh with CMS was 0.8706%. For the same compound, the M07e %inh in the experiment with M07e is recorded as 4.808%. Also, the MV4-11 %inh with MV4-11 is 11.54%. In the experiment with CMK, the CMK %inh was 2.552%. In the experiment with ML-2, the ML-2 %inh turned out to be 1.644%. Also, the CHRF288-11 %inh in the experiment with CHRF288-11 is on record as 4.206%.

Turning to `COc1cc(Nc2nccc(-c3cnn4ncccc34)n2)cc(OC)c1` [SJ000573274-1, U16419/146/1], in the experiment with U937, the U937 %inh turned out to be 80.29%. For the same compound, the MOLM-13 %inh in the experiment on MOLM-13 is 76.09%. For the same compound, the CMS %inh in the experiment on CMS was 100.2%. Also, in the experiment with M07e, the M07e %inh amounted to 113.9%. Besides, in the experiment with MV4-11, the MV4-11 %inh amounted to 76.66%. For the same compound, the CMK %inh in the experiment on CMK is on record as 84.54%. Besides, in the experiment on ML-2, the ML-2 %inh is reported as 59.09%. For the same compound, the CHRF288-11 %inh with CHRF288-11 is recorded as 52.5%.

As for `Cc1ccc2c(-c3ccnc(Nc4cccc(C(F)(F)F)c4)n3)c(-c3ccccc3)nn2n1` [SJ000573057-1, U18020/146/1], in the experiment with U937, the U937 %inh was determined as 5.106%. Also, the MOLM-13 %inh in the experiment with MOLM-13 is recorded as -0.1836%. In addition, in the experiment on CMS, the CMS %inh worked out at 10.95%. Also, the M07e %inh in the experiment with M07e was 0.344%. For the same compound, the MV4-11 %inh in the experiment with MV4-11 is on record as 9.271%. In addition, the CMK %inh in the experiment on CMK is 8.756%. In addition, the ML-2 %inh with ML-2 is listed as 9.435%. In addition, the CHRF288-11 %inh in the experiment on CHRF288-11 is -3.995%.

In the case of `C/C=C(/C(=C/C)c1ccc(O)cc1)c1ccc(O)cc1` [SJ000285735-5, DIENESTROL], in the experiment on U937 (U937 %inh, 10 µM), the U937 %inh was determined as 2.402%. In the experiment with MOLM-13 (MOLM-13 %inh, 10 µM), the MOLM-13 %inh is given as 17.84%. Moreover, the CMS %inh with CMS (CMS %inh, 10 µM) is recorded as -2.72%. The M07e %inh in the experiment on M07e (M07e %inh, 10 µM) came out at 2.558%. The MV4-11 %inh in the experiment with MV4-11 (MV4-11 %inh, 10 µM) stood at 1.913%. Also, in the experiment on CMK (CMK %inh, 10 µM), the CMK %inh was found to be 33.82%. Besides, in the experiment with ML-2 (ML-2 %inh, 10 µM), the ML-2 %inh worked out at 1.532%. Besides, in the experiment on CHRF288-11 (CHRF288-11 %inh, 10 µM), the CHRF288-11 %inh is recorded as -2.147%.

For `Clc1ccc2c(N3CCN(CCCN4CCN(c5ccnc6cc(Cl)ccc56)CC4)CC3)ccnc2c1` [SJ000518980-1, PIPERAQUINE PHOSPHATE], the U937 %inh in the experiment on U937 is -2.593%. Also, in the experiment with MOLM-13, the MOLM-13 %inh is reported as -0.1677%. Further, in the experiment with CMS, the CMS %inh is 3.926%. In the experiment with M07e, the M07e %inh is listed as -0.3802%. In addition, the MV4-11 %inh in the experiment with MV4-11 is 0.4168%. In addition, in the experiment on CMK, the CMK %inh is listed as -2.506%. In the experiment with ML-2, the ML-2 %inh is given as -2.97%. In the experiment on CHRF288-11, the CHRF288-11 %inh is on record as -8.556%.

For the compound `Cc1ccc(Nc2ccnc(Nc3cccc(C(N)=O)c3)n2)cc1O` [SJ000573134-1, R4218/174/1], the U937 %inh in the experiment on U937 is given as -1.642%. Also, the MOLM-13 %inh in the experiment on MOLM-13 was 95.23%. Moreover, the CMS %inh in the experiment with CMS is reported as -1.873%. Further, in the experiment with M07e, the M07e %inh worked out at 3.53%. Moreover, the MV4-11 %inh in the experiment on MV4-11 amounted to 65.12%. Also, in the experiment on CMK, the CMK %inh is reported as 14.84%. Besides, the ML-2 %inh in the experiment with ML-2 is reported as 3.588%. Also, the CHRF288-11 %inh in the experiment on CHRF288-11 stood at 5.659%.
